The source of these data is patent US20110044938A1 (NYCOMED GMBH, priority 2006, published 2011).

Assay [1] relates to subclones of RKO colon adenocarcinoma cells (RKOp27 or RKOp21) arrested by Ponasterone A. Briefly: Alamar Blue cell viability assay, cell cycle specific mode of action: cells arrested by ectopic p27Kip1 induced by Ponasterone A versus proliferating cells. Type of assay: cell-based. The note with it: Homo sapiens, RKO p27 induced (arrested) cells, 10 μM Ponasterone A, 72 hours, value = class bound given in Table A, read-out: −logIC50 RKO p27 induced (arrested) (converted). The protocol: To determine the cell cycle specific mode of action, subclones of RKO colon adenocarcinoma cells (RKOp27 or RKOp21 as described by Schmidt et al. in Oncogene 19, 2423-2429; 2000) are seeded into 96 well flat bottom plates at a density of 15000 cells per well in a volume of 50 μl per well in DMEM growth medium with 10% FCS containing 10 μM Ponasterone A. 24 hours after seeding the 50 μl each of the compound dilutions in DMEM medium are added into each well of the 96 Well plate. Each compound dilution is tested as quadruplicates. Wells containing untreated control cells are filled with 50 μl DMEM medium containing 1% DMSO. The cells are then incubated with the substances for 72 hours at 37° C. in a humidified athmosphere containing 5% carbon dioxide. To determine the viability of the cells, 10 μl of an Alamar Blue solution (Biosource) are added and the fluorescence was measured at an extinction of 544 nm and an emission of 590 nm. For the calculation of the cell viability the emission value from untreated cells is set as 100% viability and the emission rates of treated cells are set in relation to the values of untreated cells. Viabilities are expressed as % values. Viability is compared of proliferating cells grown in the absence of the inducer Ponasterone A, versus viability of cells arrested by the expression of ectopic p27Kip1 induced by Ponasterone A.
(§1) Representative −log IC50 [mol/l] values for anti-proliferation/cytotoxicity determined in the mentioned assays follow from the following table A, in which the numbers of the compound correspond to the numbers of the examples.
Background: Resazurin is reduced to fluorescent resorufin, in cell work by metabolically active cells.

Assay [2] relates to RKO (RKOp27) human colon adenocarcinoma cells. The experiment in a line: Alamar Blue cell viability assay, anti-proliferative/cytotoxic activity on proliferating RKO subclones. To be noted: RKOp27, 72 h, RKO p27 uninduced (proliferating) cells, value = class bound given in Table A, read-out: −logIC50 RKO p27 uninduced (proliferating) (converted). The format is cell-based. As to the method: The anti-proliferative/cytotoxic activity of the compounds described herein, can be tested on subclones of RKO (RKOp27) human colon adenocarcinoma cells (Schmidt et al., Oncogene 19, 2423-2429; 2000) using the Alamar Blue cell viability assay (described in O'Brien et al. Eur J Biochem 267, 5421-5426, 2000). The compounds are dissolved as 20 mM solutions in dimethylsulfoxide (DMSO) and subsequently diluted in semi-logarithmic steps. DMSO dilutions are further diluted 1:100 into Dulbecco's modified Eagle's medium (DMEM) containing 10% fetal calf serum to a final concentration twice as much as the final concentration in the test. RKO subclones are seeded into 96 well flat bottom plates at a density of 5000 cells per well in a volume of 50 μl per well. 24 hours after seeding the 50 μl each of the compound dilutions in DMEM medium are added into each well of the 96 Well plate. Each compound dilution is tested as quadruplicates. Wells containing untreated control cells are filled with 50 μl DMEM medium containing 1% DMSO. The cells are then incubated with the substances for 72 hours at 37° C. in a hunified atmosphere containing 5% carbon dioxide. To determine the viability of the cells, 10 μl of an Alamar Blue solution (Biosource) are added and the fluorescence is measured at an extinction of 544 nm and an emission of 590 nm. For the calculation of the cell viability the emission value from untreated cells is set as 100% viability and the emission rates of treated cells are set in relation to the values of untreated cells. Viabilities are expressed as % values.
The corresponding IC50 values of the compounds for anti-proliferative/cytotoxic activity are determined from the concentration-effect curves.
as §1

As for `N#Cc1c(NC(=O)/C=C/c2cccnc2)sc2c1CCC(OC(=O)N1CC(O)C1)C2` (stereo not shown) [Example 77, 3-Hydroxy-azetidine-1-carboxylic acid 3-cyano-2-((E)-3-pyridin-3-yl-allanoylamino)-4,5,6,7-tetrahydro-benzo[b]thiophen-6-yl ester], the figures for the IC50 in assay [1] and in assay [2] were no less than 100000 nM and no more than 501 nM, respectively.

Regarding `CC(CC(=O)Nc1sc2c(c1C#N)CCC(OC(=O)NCC1CCOCC1)C2)c1ccccc1` (stereo not shown) [Example 267, (Tetrahydro-pyran-4-ylmethyl)-carbamic acid 3-cyano-2-(3-phenyl-butanoylamino)-4,5,6,7-tetrahydro-benzo[b]thiophen-6-yl ester], the results for the IC50 in assay [1] and in assay [2] were no less than 50100 nM and no more than 501 nM, respectively.

On to `CCOc1ccccc1CCC(=O)Nc1sc2c(c1C#N)CCC(OC(=O)NCc1cccnc1)C2` (stereo not shown) [Example 165, Pyridin-3-ylmethyl-carbamic acid 3-cyano-2-[3-(2-ethoxy-phenyl)-propanoylamino]-4,5,6,7-tetrahydro-benzo[b]thiophen-6-yl ester], for which the IC50 was no less than 100000 nM in assay [1] and no more than 501 nM in assay [2].

As for `Cc1cc(CNC(=O)OC2CCc3c(sc(NC(=O)CC(C)c4ccccc4)c3C#N)C2)on1` (stereo not shown) [Example 373, (3-Methyl-isoxazol-5-ylmethyl)-carbamic acid 3-cyano-2-(3-phenyl-butanoylamino)-4,5,6,7-tetrahydro-benzo[b]thiophen-6-yl ester], the IC50 was no less than 50100 nM in assay [1] and no more than 501 nM in assay [2].

Turning to `N#Cc1c(NC(=O)/C=C/c2cccnc2)sc2c1CCC(OC(=O)NCc1ccno1)C2` (stereo not shown) [Example 60, Isoxazol-5-ylmethyl-carbamic acid 3-cyano-2-((E)-3-pyridin-3-yl-allanoylamino)-4,5,6,7-tetrahydro-benzo[b]thiophen-6-yl ester], the IC50 in assay [1] was no less than 100000 nM; in assay [2], 501 to 2000 nM.

As for `N#Cc1c(NC(=O)/C=C/c2cccnc2)sc2c1CCC(COC(=O)NC1CCC1)C2` (stereo not shown) [Example 98, Cyclobutyl-carbamic acid 3-cyano-2-((E)-3-pyridin-3-yl-allanoylamino)-4,5,6,7-tetrahydro-benzo[b]thiophen-6-ylmethyl ester], the IC50 in assay [1] is no less than 100000 nM; in assay [2] it was no more than 501 nM.

`COc1cccc(C(C)CC(=O)Nc2sc3c(c2C#N)CCC(COC(=O)NCc2cc(C)on2)C3)c1` (stereo not shown) [Example 334, (5-Methyl-isoxazol-3-ylmethyl)-carbamic acid 3-cyano-2-[3-(3-methoxy-phenyl)-butanoylamino]-4,5,6,7-tetrahydro-benzo[b]thiophen-6-ylmethyl ester]: the IC50 in assay [1] was no less than 50100 nM; in assay [2], no more than 501 nM.

As for `N#Cc1c(NC(=O)/C=C/c2cccnc2)sc2c1CCC(OC(=O)NC1CCCC1)C2` (stereo not shown) [Example 110, Cyclopentyl-carbamic acid 3-cyano-2-((E)-3-pyridin-3-yl-allanoylamino)-4,5,6,7-tetrahydro-benzo[b]thiophen-6-yl ester], the values for the IC50 in assay [1] and in assay [2] were no less than 100000 nM and no more than 501 nM, respectively.

For the molecule `Cc1nc(CNC(=O)OC2CCc3c(sc(NC(=O)CC(C)c4ccccc4)c3C#N)C2)cs1` (stereo not shown) [Example 351, (2-Methyl-thiazol-4-ylmethyl)-carbamic acid 3-cyano-2-(3-phenyl-butanoylamino)-4,5,6,7-tetrahydro-benzo[b] thiophen-6-yl ester], the IC50 in assay [1] was no less than 100000 nM; in assay [2] it was no more than 501 nM.

On to `N#Cc1c(NC(=O)/C=C/c2cccnc2)sc2c1CCC(OC(=O)N[C@H]1CC[C@@H](O)CC1)C2` (stereo partly drawn) [Example 128, cis-4-Hydroxycyclohexyl-carbamic acid 3-cyano-2-((E)-3-pyridin-3-yl-allanoylamino)-4,5,6,7-tetrahydro-benzo[b]thiophen-6-yl ester], for which the IC50 was no less than 100000 nM in assay [1] and 501 to 2000 nM in assay [2].

In the case of `CS(=O)(=O)NC1CCN(C(=O)OC2CCc3c(sc(NC(=O)/C=C/c4cccnc4)c3C#N)C2)CC1` (stereo not shown) [Example 127, 4-Methane-sulfonylamino-piperidine-1-carboxylic acid 3-cyano-2-((E)-3-pyridin-3-yl-allanoylamino)-4,5,6,7-tetrahydro-benzo[b]thiophen-6-yl ester], the results for the IC50 in assay [1] and in assay [2] were no less than 100000 nM and no more than 501 nM, respectively.

For `CC(CC(=O)Nc1sc2c(c1C#N)CCC(OC(=O)NCc1cccn1C)C2)c1ccccc1` (stereo not shown) [Example 300, (1-Methyl-1H-pyrrol-2-ylmethyl)-carbamic acid 3-cyano-2-(3-phenyl-butanoylamino)-4,5,6,7-tetrahydro-benzo[b] thiophen-6-yl ester], the IC50 was no less than 50100 nM in assay [1] and no more than 501 nM in assay [2].

As for `N#Cc1c(NC(=O)CCc2cccnc2)sc2c1CCC(COC(=O)NCc1ccccc1)C2` (stereo not shown) [Example 157, Benzyl-carbamic acid 3-cyano-2-(3-pyridin-3-yl-propanoylamino)-4,5,6,7-tetrahydro-benzo[b]thiophen-6-ylmethyl ester], the IC50 was no less than 100000 nM in assay [1] and no more than 501 nM in assay [2].

On to `COc1cccc(CCC(=O)Nc2sc3c(c2C#N)CCC(OC(=O)NCc2cc(C)nn2C)C3)c1` (stereo not shown) [Example 226, (2,5-Dimethyl-2H-pyrazol-3-ylmethyl)-carbamic acid 3-cyano-2-[3-(3-methoxy-phenyl)-propanoylamino]-4,5,6,7-tetrahydro-benzo[b]thiophen-6-yl ester], for which the results for the IC50 in assay [1] and in assay [2] were no less than 100000 nM and no more than 501 nM, respectively.

For `CN(C)C(=O)OC[C@H]1CCc2c(sc(NC(=O)/C=C/c3cccnc3)c2C#N)C1` [Example 74a, Dimethyl-carbamic acid (S)-3-cyano-2-((E)-3-pyridin-3-yl-allanoylamino)-4,5,6,7-tetrahydro-benzo[b]thiophen-6-ylmethyl ester], the IC50 was no less than 100000 nM in assay [1] and no more than 501 nM in assay [2].

With `COCCOC(=O)OC1CCc2c(sc(NC(=O)CCc3cccc(OC)c3)c2C#N)C1` (stereo not shown) [Example 217, Carbonic acid 3-cyano-2-[3-(3-methoxy-phenyl)-propanoylamino]-4,5,6,7-tetrahydro-benzo[b]thiophen-6-yl ester 2-methoxy-ethyl ester], the IC50 in assay [1] was no less than 100000 nM; in assay [2] it was 501 to 2000 nM.

With `CCOc1ccccc1CCC(=O)Nc1sc2c(c1C#N)CCC(OC(=O)NCc1nc(C)cs1)C2` (stereo not shown) [Example 210, (4-Methyl-thiazol-2-ylmethyl)-carbamic acid 3-cyano-2-[3-(2-ethoxy-phenyl)-propanoylamino]-4,5,6,7-tetrahydro-benzo[b]thiophen-6-yl ester], the IC50 is no less than 100000 nM in assay [1] and 501 to 2000 nM in assay [2].

Consider `N#Cc1c(NC(=O)/C=C/c2cccnc2)sc2c1CCC(OC(=O)N1CCCC(O)C1)C2` (stereo not shown) [Example 113, 3-Hydroxy-piperidine-1-carboxylic acid 3-cyano-2-((E)-3-pyridin-3-yl-allanoylamino)-4,5,6,7-tetrahydro-benzo[b]thiophen-6-yl ester], for which the results for the IC50 in assay [1] and in assay [2] were no less than 100000 nM and no more than 501 nM, respectively.

Turning to `CCOc1ccccc1/C=C/C(=O)Nc1sc2c(c1C#N)CCC(OC(=O)OCCN1CCOCC1)C2` (stereo not shown) [Example 13, Carbonic acid 3-cyano-2-[(E)-3-(2-ethoxy-phenyl)-allanoylamino]-4,5,6,7-tetrahydro-benzo[b]thiophen-6-yl ester 2-morpholin-4-yl-ethyl ester], the IC50 is no less than 100000 nM in assay [1] and 501 to 2000 nM in assay [2].

On to `CCn1nccc1CNC(=O)OCC1CCc2c(sc(NC(=O)CC(C)c3ccccc3)c2C#N)C1` (stereo not shown) [Example 322, (2-Ethyl-2H-pyrazol-3-ylmethyl)-carbamic acid 3-cyano-2-(3-phenyl-butanoylamino)-4,5,6,7-tetrahydro-benzo[b] thiophen-6-ylmethyl ester], for which the values for the IC50 in assay [1] and in assay [2] were no less than 50100 nM and no more than 501 nM, respectively.
